For the first data set, the system named is Cas12a gRNA target sites on Glycine max A3335 chromosome 13. Put plainly: gRNA/LbCas12a target site editing in stably transformed soybean plants (AmpSeq). The following applies: plants with target site edits / plants examined x 100. In kind it is in vivo. The text has this: CRISPR Cas12a-based cleavage of DNA sequences requires the use of gRNAs that can target specific sequences (target sites) comprising a Cas12a-recognizable protospacer adjacent motif (PAM) sequence so as to facilitate Cas12a enzymatic activity and DNA cleavage. The 10 cM window was scanned for the presence of the LbCas12a-preferred PAM (TTTV, where “V” is A, C, or G) that were unique in the genome (i.e., that only occur once in the genome). This set was additionally filtered so as to identify gRNA target sites that were more than 2 kb from a coding region, more than 1 kb from a small RNA hotspot, and comprised 700 nucleotides (nt) of unique sequence on either side. A suite of genomic target sites was identified from this analysis and 12 were chosen for testing based on additional factors like GC content, and absence of potential off-targets. PAM sites are italicized and shown in bold. The corresponding 23 bp gRNA spacer (SP) sequences are also identified and represented by SEQ ID NOs:223-234.
Three Agrobacterium T-DNA vectors were designed to evaluate gRNA and LbCas12a nuclease mediated cleavage at the selected target sites. Each T-DNA vector contained 3 cassettes between the left and right borders on the T-DNA: an aadA selection marker cassette, an LbCas12a Cas12a cassette, and a multiplexed gRNA cassette. The aadA and LbCas12a cassettes were common across the three vectors. The aadA expression cassette contained the aadA gene (also known as Tn7 adenylyltransferase (AAD(3″)) from E. coli under the control of a constitutive promoter, and targeted the aadA protein to the chloroplast for selection of transgenic events resistant to spectinomycin and streptomycin. The LbCas12a cassette comprised a plant codon optimized LbCas12a (SEQ ID NO:236) flanked by the same nuclear localization signal sequence (NLS) at the 5′ and 3′ ends (SEQ ID NO:235) and a 3′UTR sequence (SEQ ID NO:237) derived from a Medicago truncatula gene. The gene cassette comprising NLS-Cas12aLbCas12a-NLS sequence was fused 3′ to an ATGGCG sequence and operably linked to a chimeric promoter sequence (SEQ ID NO:238) comprising an enhancer region from the Banana Streak Virus (Strain Acuminata Vietnam) and promoter with the 5′ UTR region from the Dahlia mosaic virus.
The guide RNA cassette in vector pG947 comprised a Glycine max Pol III promoter operably linked to a transcribable sequence comprising in order a DR sequence (SEQ ID NO:239), spacer SP10 (SEQ ID NO:232), DR (SEQ ID NO: 239), spacer SP11 (SEQ ID NO:233), DR (SEQ ID NO: 239), spacer SP2 (SEQ ID NO:224), DR (SEQ ID NO: 239), spacer SP12 (SEQ ID NO:234), DR and a poly (T)7 terminator. The guide RNA cassette in vector pG949 comprised a Glycine max Pol III promoter operably linked to a transcribable sequence comprising in order a DR sequence (SEQ ID NO:239), spacer SP9 (SEQ ID NO:231), DR (SEQ ID NO: 239), spacer SP7 (SEQ ID NO:229), DR (SEQ ID NO: 239), spacer SP1 (SEQ ID NO:223), DR (SEQ ID NO: 239), spacer SP5 (SEQ ID NO:227), DR (SEQ ID NO: 239) and a poly (T)7 terminator. The guide RNA cassette in vector pG950 comprised a Glycine max Pal III promoter operably linked to a transcribable sequence comprising in order a DR sequence (SEQ II) NO:239), spacer SP3 (SEQ ID NO:225), DR (SEQ ID NO: 239), spacer SP6 (SEQ ID NO:228), DR (SEQ ID NO: 239), spacer SP4 (SEQ ID NO:226), DR (SEQ ID NO: 239), spacer P8 (SEQ ID NO:230), DR and a poly (T)7 terminator.
The three plant transformation vectors were introduced into soybean seed-derived embryo explants through Agrobacterium-mediated transformation using methods known in the art. Transformed plants were selected on spectinomycin. Genomic DNA was extracted from leaf samples harvested from regenerated plantlets. Each targeted region was amplified by PCR. […]
For “GmTS4: LbCas12a gRNA for target site GmTS4 (SEQ ID NO:214), spacer SP4 (SEQ ID NO:226) (guide CCTTGATTTGGATTAACCCGCCA; expressed or natural sequence)”, the “Target Editing Rate (%)” value is on record as 8.3%.

In the case of “GmTS5: LbCas12a gRNA for target site GmTS5 (SEQ ID NO:215), spacer SP5 (SEQ ID NO:227) (guide CTAAATCGCATAGCTTGTGTGTT; expressed or natural sequence)”, the “Target Editing Rate (%)” value came out at 14.3%. For the compound “GmTS11: LbCas12a gRNA for target site GmTS11 (SEQ ID NO:221), spacer SP11 (SEQ ID NO:233) (guide GCTCGCTATATATATGTGTCACA; expressed or natural sequence)”, the “Target Editing Rate (%)” value was 48.8%.

For “GmTS2: LbCas12a gRNA for target site GmTS2 (SEQ ID NO:212), spacer SP2 (SEQ ID NO:224) (guide CTTCCTGAGGAAATTTGGTTTCA; expressed or natural sequence)”, the “Target Editing Rate (%)” value worked out at 7.3%.

Turning to “GmTS1: LbCas12a gRNA for target site GmTS1 (SEQ ID NO:211), spacer SP1 (SEQ ID NO:223) (guide CAAACATCACATGGCCGGATAAG; expressed or natural sequence)”, the “Target Editing Rate (%)” value turned out to be 2.4%.

As to “GmTS3: LbCas12a gRNA for target site GmTS3 (SEQ ID NO:213), spacer SP3 (SEQ ID NO:225) (guide GCAAGATCCGCTGCCTGCTTGAG; expressed or natural sequence)”, the “Target Editing Rate (%)” value was found to be 8.3%. On to “GmTS12: LbCas12a gRNA for target site GmTS12 (SEQ ID NO:222), spacer SP12 (SEQ ID NO:234) (guide GACATATATGCTATATCATTCTC; expressed or natural sequence)”, for which the “Target Editing Rate (%)” value turned out to be 72%.

Regarding “GmTS10: LbCas12a gRNA for target site GmTS10 (SEQ ID NO:220), spacer SP10 (SEQ ID NO:232) (guide ATCAAAGCTAAAGCATAAGCATC; expressed or natural sequence)”, the “Target Editing Rate (%)” value is 45.1%. Turning to “GmTS6: LbCas12a gRNA for target site GmTS6 (SEQ ID NO:216), spacer SP6 (SEQ ID NO:228) (guide CATGCTGTCATCATCTGTTCACT; expressed or natural sequence)”, the “Target Editing Rate (%)” value is 17.9%. As for “GmTS7: LbCas12a gRNA for target site GmTS7 (SEQ ID NO:217), spacer SP7 (SEQ ID NO:229) (guide CCTATATCTGTTTCAGTGATTGC; expressed or natural sequence)”, the “Target Editing Rate (%)” value came to 23.8%. The same measure, in the same setting: to “GmTS9: LbCas12a gRNA for target site GmTS9 (SEQ ID NO:219), spacer SP9 (SEQ ID NO:231) (guide CGGAGTAGCAGAGAGGAGATTCG; expressed or natural sequence)” belongs 36.9%.

The subject of another data set is soybean event Gm_CSM63717. Put plainly: Controlled environment PPO herbicide tolerance trial, event Gm_CSM63717. In kind it is in vivo, Glycine max. The following applies: 1× rate, sprayed at V3 stage, greenhouse, rated 11 days after herbicide applications. The method, then:
(§1) An efficacy trial was conducted in the controlled environment to evaluate tolerance of event Gm_CSM63717 to various PPO herbicides. The experiment included the lead event (Gm_CSM63717) and a wild-type control in the same transformation germplasm, and consisted of nine individual PPO herbicide treatments, all at 1× rates. These included butafenacil, flumioxazin, fomesafen, lactofen, pyroflufen, saflufenacil, Voraxor (trifludimoxazin and salflufenacil), sulfentrazone, cyclopropylmethyl (2-{2-chloro-4-fluoro-5-[3-methyl-2,6-dioxo-4-(trifluoromethyl)-3,6-dihydropyrimidin-1(2H)-yl]phenoxy}phenoxy)acetate, and an untreated control. The herbicide formulations contained 1% (v/v) Crop Oil Concentrate (COC, Prime Oil, Winfield Solutions, LLC, P. O. Box 64589, St. Paul, MN 55164-0589) for sulfentrazone, fomesafen, lactofen, or 1% (v/v) methylated seed oil (Destiny® HC, Winfield Solutions, LLC, P. O. Box 64589, St. Paul, MN 55164-0589) for flumioxazin, saflufenacil, Voraxor, pyroflufen, butafenacil, and cyclopropylmethyl (2-{2-chloro-4-fluoro-5-[3-methyl-2,6-dioxo-4-(trifluoromethyl)-3,6-dihydropyrimidin-1(2H)-yl]phenoxy}phenoxy)acetate. There were 10 replications per treatment. The plants were grown under standard greenhouse conditions, and were sprayed with each herbicide at V3 stage, and were visually rated for herbicide injury 11 days after herbicide applications.
Consider `Cn1c(C(F)(F)F)cc(=O)n(-c2cc(Oc3ccccc3OCC(=O)OCC3CC3)c(Cl)cc2F)c1=O` [cyclopropylmethyl (2-{2-chloro-4-fluoro-5-[3-methyl-2,6-dioxo-4-(trifluoromethyl)-3,6-dihydropyrimidin-1(2H)-yl]phenoxy}phenoxy)acetate], for which the “Injury (%) Gm_CSM63717” value is recorded as 0%.

In another data set the test system is wild-type control in the same transformation germplasm. Put plainly: Controlled environment PPO herbicide tolerance trial, wild-type control. In kind it is in vivo, Glycine max. The following applies: 1× rate, sprayed at V3 stage, greenhouse, rated 11 days after herbicide applications. The method, then:
as §1
As to `Cn1c(C(F)(F)F)cc(=O)n(-c2cc(Oc3ccccc3OCC(=O)OCC3CC3)c(Cl)cc2F)c1=O` [cyclopropylmethyl (2-{2-chloro-4-fluoro-5-[3-methyl-2,6-dioxo-4-(trifluoromethyl)-3,6-dihydropyrimidin-1(2H)-yl]phenoxy}phenoxy)acetate], the “Injury (%) WT Control” value amounted to 89%.

(Values after patent US20250197952A1, “TRANSGENIC SOYBEAN EVENT GM_CSM63717 AND COMPOSITIONS AND METHODS FOR DETECTION AND USES THEREOF” (Monsanto Technology LLC, priority 2023, published 2025).)
